# Oligonucleotides are written 5' to 3', each unit as a sugar letter and its base; * is a phosphorothioate linkage, no mark a phosphodiester; rarer units and linkages stand in square brackets, end groups in braces. Plain capitals give the bases only. e = 2'-O-(2-methoxyethyl) (MOE); [5mC] = 5-methylcytosine
# System: IKBKAP pre-mRNA (mt19-21 minigene)
# Assay: Exon 20 inclusion in HEK-293 cells harboring the mt19-21 IKBKAP minigene (RT-PCR)
# Type: cell-based, human
# Details: HEK-293 with mt19-21 minigene; for % inclusion (exon 20): 0.007 nmol oligonucleotide by electroporation, RT-PCR two days later; for effect on exon 20 inclusion/skipping, in words: 0.007 nmol oligonucleotide
# Experimental: Antisense oligonucleotides were designed targeting a human IKBKAP nucleic acid and were tested for their effects on IKBKAP pre-mRNA in vitro. Together, the overlapping antisense oligonucleotides spanned the entire 74-nucleotide region of the IKBKAP exon 20 sequence, as well as the 100-nucleotide intronic regions immediately upstream and downstream of exon 20. The antisense oligonucleotides are presented in Table 1, and were designed as uniform 2′-O-methoxyethyl ribose (MOE) oligonucleotides with phosphate backbones. Each oligonucleotide is 15 nucleosides in length. All cytosine residues throughout the oligonucleotide are 5-methylcytosines. ‘Start Site’ indicates the 5′-most nucleoside to which the oligonucleotide is targeted in the human gene sequence. “Stop site” indicates the 3′-most nucleoside to which the oligonucleotide is targeted in the human gene sequence. Each oligonucleotide listed in Table 1 is targeted to the human IKBKAP genomic sequence (the complement of GENBANK Accession No NT_008470.16 truncated from nucleotides 13290828 to Ser. No. 13/358,424, designated herein as SEQ ID NO: 1). ISIS 414161 has one mismatch with SEQ ID NO: 1.
# Cultured HEK-293 cells harboring the mt19-21 minigene vector construct at a density of 7×10^5 cells per well were transfected using electroporation (Gene Pulsar II apparatus, Bio-Rad) with 0.007 nmol antisense oligonucleotide, as previously described (Hua, Y., et al., 2007. PLoS Biol 5:e73). […] These oligonucleotides served as controls for non-specific effects of uniform MOE oligonucleotides with phosphate backbones. Cells harboring the wt19-21 minigene and the mt19-21 minigene alone were also cultured and were used as controls for exon 20 inclusion levels. Two days later, cDNA synthesized from total RNA extracted from HEK-293 cells was amplified using the forward primer pCDNAF and reverse primer sequence IKAP21R4 to assay the splicing pattern of expressed RNAs by RT-PCR. To calculate exon 20 inclusion levels, the PCR amplicons were labeled with α^32P-dCTP. The PCR products were then separated by native PAGE, followed by phosphorimage analysis on a FUJIFILM FLA-5100 instrument (Fuji Medical Systems USA Inc.). The band intensities were quantified using Multi Gauge software Version 2.3 (FUJIFILM), and values were normalized for the G+C content according to the DNA sequence.
# Treatment with antisense oligonucleotides targeting the 3′ and 5′ splice sites caused increased skipping of exon 20.
# Additional oligonucleotides were designed targeting the first 30-nucleotide stretch of ISS-40. These oligonucleotides were designed by choosing sequences shifted in one nucleotide increments upstream and downstream (i.e., a “microwalk”) of ISS-40, starting from the +6 position in exon 20. The antisense oligonucleotides are presented in Table 2 and FIG. 4D, and were designed as uniform 2′-O-methoxyethyl ribose (MOE) oligonucleotides with phosphate backbones. Each oligonucleotide is 20 nucleosides in length. All cytosine residues throughout the oligonucleotide are 5-methylcytosines. ‘Start Site’ indicates the 5′-most nucleoside to which the oligonucleotide is targeted in the human gene sequence. “Stop site” indicates the 3′-most nucleoside to which the oligonucleotide is targeted in the human gene sequence. Each oligonucleotide listed in Table 2 is targeted to intron 20 of the human IKBKAP genomic sequence (the complement of GENBANK Accession No NT_008470.16 truncated from nucleotides 13290828 to Ser. No. 13/358,424, designated herein as SEQ ID NO: 1). These oligonucleotides were tested in vitro.
# Cultured HEK-293 cells harboring the mt19-21 minigene vector construct at a density of 7×10^5 cells per well were transfected using electroporation (Gene Pulsar II apparatus, Bio-Rad) with 0.007 nmol antisense oligonucleotide, as previously described (Hua, Y., et al., 2007. PLoS Biol 5:e73). […]
Substance,% inclusion (exon 20) (Table 1) [%],% inclusion (exon 20) (Table 2 (microwalk experiment)) [%],"effect on exon 20 inclusion/skipping, in words"
"ISIS 414173: uniform 2′-MOE 15-mer, phosphate backbone; TCGAAATTGTAATAA, SEQ ID NO 52, intron 20 (eTe[5mC]eGeAeAeAeTeTeGeTeAeAeTeAeA; splice-switching)",31,–,–
"ISIS 414139: uniform 2′-MOE 15-mer, phosphate backbone; GTAGAAAACATTTAA, SEQ ID NO 18, intron 19 (eGeTeAeGeAeAeAeAe[5mC]eAeTeTeTeAeA; splice-switching)",20,–,–
"ISIS 421995: uniform 2′-MOE 20-mer, phosphate backbone; CTAGTCGCAAACAGTACAAT, SEQ ID NO 64, intron 20 (e[5mC]eTeAeGeTe[5mC]eGe[5mC]eAeAeAe[5mC]eAeGeTeAe[5mC]eAeAeT; splice-switching)",–,92,–
"ISIS 414175: uniform 2′-MOE 15-mer, phosphate backbone; TTTTAAGTTCTCGAA, SEQ ID NO 54, intron 20 (eTeTeTeTeAeAeGeTeTe[5mC]eTe[5mC]eGeAeA; splice-switching)",27,–,–
"ISIS 414157: uniform 2′-MOE 15-mer, phosphate backbone; CACTTCCGAATCTGA, SEQ ID NO 36, exon 20 (e[5mC]eAe[5mC]eTeTe[5mC]e[5mC]eGeAeAeTe[5mC]eTeGeA; splice-switching)",15,–,–
"ISIS 421998: uniform 2′-MOE 20-mer, phosphate backbone; TAACTAGTCGCAAACAGTAC, SEQ ID NO 67, intron 20 (eTeAeAe[5mC]eTeAeGeTe[5mC]eGe[5mC]eAeAeAe[5mC]eAeGeTeAe[5mC]; splice-switching)",–,81,–
"ISIS 421997: uniform 2′-MOE 20-mer, phosphate backbone; AACTAGTCGCAAACAGTACA, SEQ ID NO 66, intron 20 (eAeAe[5mC]eTeAeGeTe[5mC]eGe[5mC]eAeAeAe[5mC]eAeGeTeAe[5mC]eA; splice-switching)",–,81,–
"ISIS 414144: uniform 2′-MOE 15-mer, phosphate backbone; TTAAAGCAGTAACAT, SEQ ID NO 23, intron 19 (eTeTeAeAeAeGe[5mC]eAeGeTeAeAe[5mC]eAeT; splice-switching)",7,–,–
"ISIS 414155: uniform 2′-MOE 15-mer, phosphate backbone; TCTGAGCTAAAACCA, SEQ ID NO 34, exon 20 (eTe[5mC]eTeGeAeGe[5mC]eTeAeAeAeAe[5mC]e[5mC]eA; splice-switching)",6,–,–
"ISIS 414133: uniform 2′-MOE 15-mer, phosphate backbone; CATTTTACCTAACTC, SEQ ID NO 12, intron 19 (e[5mC]eAeTeTeTeTeAe[5mC]e[5mC]eTeAeAe[5mC]eTe[5mC]; splice-switching)",25,–,–
"ISIS 414164: uniform 2′-MOE 15-mer, phosphate backbone; AGCTAACTAGTCGCA, SEQ ID NO 43, intron 20 (eAeGe[5mC]eTeAeAe[5mC]eTeAeGeTe[5mC]eGe[5mC]eA; splice-switching)",78,74,markedly increased inclusion of exon 20
"ISIS 414170: uniform 2′-MOE 15-mer, phosphate backbone; AATACTTATTGTCTT, SEQ ID NO 49, intron 20 (eAeAeTeAe[5mC]eTeTeAeTeTeGeTe[5mC]eTeT; splice-switching)",32,–,–
"ISIS 414147: uniform 2′-MOE 15-mer, phosphate backbone; GTTTCCCCTTGGCAT, SEQ ID NO 26, exon 20 (eGeTeTeTe[5mC]e[5mC]e[5mC]e[5mC]eTeTeGeGe[5mC]eAeT; splice-switching)",3,–,–
"ISIS 414142: uniform 2′-MOE 15-mer, phosphate backbone; AACATTTTTAATTAA, SEQ ID NO 21, intron 19 (eAeAe[5mC]eAeTeTeTeTeTeAeAeTeTeAeA; splice-switching)",23,–,–
"ISIS 414176: uniform 2′-MOE 15-mer, phosphate backbone; CATAATTTTAAGTTC, SEQ ID NO 55, intron 20 (e[5mC]eAeTeAeAeTeTeTeTeAeAeGeTeTe[5mC]; splice-switching)",31,–,–
"ISIS 414145: uniform 2′-MOE 15-mer, phosphate backbone; ATAAATTAAAGCAGT, SEQ ID NO 24, intron 19 (eAeTeAeAeAeTeTeAeAeAeGe[5mC]eAeGeT; splice-switching)",3,–,–
"ISIS 414132: uniform 2′-MOE 15-mer, phosphate backbone; TACCTAACTCTTCAC, SEQ ID NO 11, intron 19 (eTeAe[5mC]e[5mC]eTeAeAe[5mC]eTe[5mC]eTeTe[5mC]eAe[5mC]; splice-switching)",19,–,–
"ISIS 414166: uniform 2′-MOE 15-mer, phosphate backbone; ATAAATCACAAGCTA, SEQ ID NO 45, intron 20 (eAeTeAeAeAeTe[5mC]eAe[5mC]eAeAeGe[5mC]eTeA; splice-switching)",40,38,markedly increased inclusion of exon 20
"ISIS 414168: uniform 2′-MOE 15-mer, phosphate backbone; GTCTTCACACATAAA, SEQ ID NO 47, intron 20 (eGeTe[5mC]eTeTe[5mC]eAe[5mC]eAe[5mC]eAeTeAeAeA; splice-switching)",17,–,significantly decreased the levels of the included RNA isoform
"ISIS 421993: uniform 2′-MOE 20-mer, phosphate backbone; AGTCGCAAACAGTACAATGG, SEQ ID NO 62, intron 20 (eAeGeTe[5mC]eGe[5mC]eAeAeAe[5mC]eAeGeTeAe[5mC]eAeAeTeGeG; splice-switching)",–,87,–
"ISIS 414149: uniform 2′-MOE 15-mer, phosphate backbone; CAACTTCTAAGTTTC, SEQ ID NO 28, exon 20 (e[5mC]eAeAe[5mC]eTeTe[5mC]eTeAeAeGeTeTeTe[5mC]; splice-switching)",20,–,–
"ISIS 414163: uniform 2′-MOE 15-mer, phosphate backbone; ACTAGTCGCAAACAG, SEQ ID NO 42, intron 20 (eAe[5mC]eTeAeGeTe[5mC]eGe[5mC]eAeAeAe[5mC]eAeG; splice-switching)",74,74,markedly increased inclusion of exon 20
"ISIS 414152: uniform 2′-MOE 15-mer, phosphate backbone; GGGCTCGATGATGAA, SEQ ID NO 31, exon 20 (antisense eGeGeGe[5mC]eTe[5mC]eGeAeTeGeAeTeGeAeA)",3,–,–
"ISIS 414151: uniform 2′-MOE 15-mer, phosphate backbone; CGATGATGAACAACT, SEQ ID NO 30, exon 20 (e[5mC]eGeAeTeGeAeTeGeAeAe[5mC]eAeAe[5mC]eT; splice-switching)",0,–,–
"ISIS 414138: uniform 2′-MOE 15-mer, phosphate backbone; AAACATTTAAATAGC, SEQ ID NO 17, intron 19 (eAeAeAe[5mC]eAeTeTeTeAeAeAeTeAeGe[5mC]; splice-switching)",23,–,–
